Test: pH-dependent solubility of the active ingredient
Details: acidic range

Solubility: 0.45%
Compound: CC(=O)Oc1ccccc1C(=O)O [Acetylsalicylic acid, acetylsalicylic acid]
